Laboratory results taken from patent publication US20250332212A1, “METHOD FOR TREATING OR PREVENTING ALOPECIA” (Suzhou Mingren Pharmaceutical Biotechnology Co., Ltd., priority 2024, published 2025).

Experiments:
type II 5α-reductase = type II 5α-reductase (Homo sapiens, UniProt P31213); settings: in serum and scalp; cited from earlier work
[1] = background statement; cited from earlier work
[2] = tested on: TP-induced AGA model mice; assay: TP-induced AGA model, Animal model III (specific inhibition of SP1 by MTA); assay type: in vivo, C57BL/6J male mice; settings: MTA 0.3 mg/kg/d intraperitoneally with 1% JP1
From the text: To verify that JP1 promotes AGA follicle regeneration through the activation of the Wnt/β-catenin signaling pathway via the MAPK/E2F1/SP1 signaling axis, the example constructed a mouse model of AGA with specific inhibition of SP1 (FIG. 15A). The specific experimental details are described according to “Animal model III” of “1. TP-induced AGA model” in “Experimental Methods”.
To further confirm that JP1 promotes the growth of hair follicles on the back of AGA model mice through the SP1-regulated Wnt/β-catenin signaling pathway at the histomorphometric level, H&E staining was performed on the skin tissues of the model mice of Example 15 at different time points (days 4, 8, and 12 post-intervention).
The mice used in this study were 5-week-old C57BL/6J male mice (18-20 g), which were purchased from Jiangsu Jicui Pharmachem Biotechnology Co. All the animals used in the experiments were housed in the SPF-level environment of the Medical Laboratory Animal Center of Nanjing Medical University, and the relevant animal experimental operations were approved by the Animal Ethics Committee of Nanjing Medical University. The control group was left untreated, and the other groups were injected with TP subcutaneously on their backs every day. Two weeks later, the hair on the backs of the mice was shaved with an electric razor, covering an area of 2 cm×4 cm, and then the residual hair was removed with a hair removal cream. The subcutaneous injections of TP on the shaved backs of the mice in the AGA model was continued until the end of the experimental period, and the administration of TP in each of the treatment groups was begun on the 1st day of the dehairing process.
In addition to the normal control group (denoted as control) n=20, all mice injected subcutaneously with TP were randomly divided into the following groups (n=20): the model group (denoted as model), the 1% JP1 (skin-coated), and the 1% JP1+MTA group. […] MTA was administered at a dose of 0.3 mg/kg/d, qd, intraperitoneally, 100 μL/dose.
Mice were weighed every two days during the experiment. Skin color was assessed against skin score charts. The mice were euthanized and treated at the end of the experiment, and skin tissues were taken from the dorsal decorticated area of the mice. Some of the tissues were fixed with 4% paraformaldehyde solution and then paraffin sections were made for H&E or immunofluorescence staining, etc., and some of the tissues were stored in the refrigerator at −80° C. for relevant molecular expression assays (qRT-PCR, Western Blot, IP, etc.).
8.1) Sampling and fixation: After the experiment, skin tissue was taken from the depilated area on the back of the mouse and placed in a 10 mL EP tube. 4% paraformaldehyde was added to the EP tube, and all tissues were immersed to denature and coagulate the proteins of the skin tissue. The original morphology and structure of the cells were maintained.
8.6) H&E staining: the sections pretreated in distilled water were put into aqueous hematoxylin solution for a few minutes for staining. The color was separated in acid water and ammonia for a few seconds each. After rinsing in running water for 1 h, the sections were placed in distilled water for a few moments. The sections were dehydrated in 70% and 90% alcohol for 10 min each, and stained in alcoholic eosin stain for 2-3 min.

[3] = tested on: SP1, Wnt10a, Wnt10b and β-catenin; assay: Immunoblotting of SP1 and downstream molecules in skin, Animal model III; assay type: in vivo, mouse; settings: dorsal skin
Protocol: 4.1) Protein extraction: 70 mg of skin tissue was placed in a 1.5 mL centrifuge tube, and 500 μL of tissue lysate RIPA containing protease inhibitor and phosphatase inhibitor was added. The tissue was placed on an ice box, pulverized by a tissue grinder, and then ultrasonically crushed to obtain a tissue suspension, which was then placed in a rotary windmill at 4° C. to be lysed for 2 h. The centrifuge was set at 12,000×g, 4° C., centrifuged for 15 min, and the supernatant was collected as the total protein.
5.1) Heating of protein samples: the total protein content of each tissue was 50 μg; calculate the volume of a corresponding protein sample, make up the volume with saline to 16 μL, then add 4 μL of 5×SDS sampling buffer, heat at 100° C. for 5 min, and then cool at room temperature and store at −20° C.
5.7) Primary antibody incubation: the cut protein bands were placed into the corresponding primary antibody and incubated at 4° C. on a shaker overnight, washed with TBST 3 times for 10 min/time.

Sequence of type II 5α-reductase (P31213 whole entry): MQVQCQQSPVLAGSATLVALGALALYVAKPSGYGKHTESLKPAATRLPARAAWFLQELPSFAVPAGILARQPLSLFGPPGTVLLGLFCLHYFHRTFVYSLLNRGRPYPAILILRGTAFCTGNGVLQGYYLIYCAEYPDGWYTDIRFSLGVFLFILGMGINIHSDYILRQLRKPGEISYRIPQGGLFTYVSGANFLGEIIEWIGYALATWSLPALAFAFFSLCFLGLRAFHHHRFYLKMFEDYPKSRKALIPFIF

CC(C)(C)NC(=O)[C@H]1CC[C@H]2[C@@H]3CC[C@H]4NC(=O)C=C[C@]4(C)[C@H]3CC[C@]12C [finasteride]
reduction of double hydrogen testosterone (DHT) (type II 5α-reductase): more than 60%

Nc1cc(N2CCCCC2)nc(N)[n+]1[O-] [minoxidil]
adverse reactions [1]: itchiness of the scalp, dermatitis, and localized hirsutism

Mithramycin A [MTA, reference compound]
effect of SP1 inhibition on hair follicle growth promotion by JP1 [2]: blocked the hair follicle growth-promoting effect of JP1
effect of MTA on JP1-induced expression of SP1 downstream molecules [3]: block the effect of JP1 on the expression of SP1 downstream molecules
